Key:
[1] = system: adenylosuccinase deficiency (autism); experiment: Therapeutic trial of oral AICA riboside in patients with adenylosuccinase deficiency (autism); format: in vivo, human
Description: Following authorization, therapeutic trials with AICA riboside were started in two patients with adenylosuccinase deficiency (autism). […] On Day 55, both patients were briefly readmitted for clinical, biochemical and psychiatric evaluation. […] Treatment was maintained until Day 71, and arrested at that date. […] A correct assessment of the renal loss of the nucleoside could not be obtained. […] The following parameters were found normal before and during the trial treatment with AICA riboside: red blood cell count, white blood cell count, platelet and reticulocyte counts; leukocyte differentiations; hematocrit, ionogram, Ca, phosphate, urea, creatinine, uric acid, cholesterol, lipids, SGOT, SGPT, CPK, glucose, lactate and ammonia.

ischemic myocardium [2] = experiment: Inosine levels in venous blood of dogs during coronary artery occlusion; format: in vivo, dog; conditions: over the 60-minute assay period, vs saline
Description: Thirteen mongrel dogs were anesthetized with phenobarbital. […] C.V. Dis. 20; 55 (1977). […] Two of the surviving saline-treated animals fibrillated. […] That the increase in the levels of adenosine is due, at least in part, to a reduction in the amount of ATP that is converted to inosine was shown by analysis of venous blood from dogs in Example III for inosine levels.

[3] = Phase 2 CABG trial: plasma AICA riboside concentrations and clearance; format: in vivo; conditions: human, intravenous, low and high doses, pre- and post-bypass, read-out: total plasma clearance (CLp) (converted)
Description: 10. Plasma Levels. […] Individual values and group means were tabulated and drug clearance calculated. Dose proportionality was assessed.
The data are also presented graphically in FIG. 18.

ischemic rat hearts = experiment: Rat heart ischemia model: tissue adenosine levels; format: in vivo; conditions: intraperitoneal; hearts excised after 60 minutes, incubated 60 minutes at 37° C.
Description: Male rats were injected intraperitonealy with either the AICA riboside analog, AICA riboside or saline, as a control. After 60 minutes, the hearts were excised and incubated at 37° C. for a further 60 minutes. Tissue extracts were prepared and analyzed for adenosine by high performance liquid chromatography (HPLC).

[4] = Phase 2 CABG trial: safety (serum glucose, uric acid, adverse events); format: in vivo, human
Description: In addition to the hemodynamic monitoring described above the following tests were performed at screening, on the first post-operative day and at discharge:
1. Hematology included hemoglobin, total white cell count and differential, hematocrit and platelet count.
4. Any adverse events were recorded throughout by the investigator, who assessed their severity and the relationship of these adverse experiences to the treatment.
11. Adverse Effects. The incidence, severity and drug-relatedness of any adverse effects were tabulated by treatment group by decreasing incidence of such effects in the high dose group. Statistical analysis was not performed.

[5] = system: HPRT+ neuroblastoma cells; experiment: Adenosine excretion by stimulated HPRT+ neuroblastoma cells; format: cell-based; conditions: 50 μM AICA riboside, calcium ionophore A23187, 1.0 μM deoxycoformycin
Description: To induce ATP catabolism, the growth medium was replaced by medium containing micromolar amounts of the calcium ionophore A23187 and 1.0 μM deoxycoformycin.

myocardial infarct = experiment: Myocardial infarct size in rats after coronary artery ligation; format: in vivo, rat; conditions: bolus plus osmotic mini-pump infusion, three weeks, vs saline
Description: The animals were continuously exposed by infusion of either AICA riboside in saline or saline using osmotic mini-pumps well known to those in the art. After three weeks, the rats were sacrificed and infarct size quantitated by planimarizing stained sections of fixed hearts.

[6] = system: isoproterenol (isuprel)-induced arrhythmias; experiment: Suppression of isoproterenol (isuprel)-induced arrhythmias; format: in vivo, rat; conditions: 1000 mg/kg intraperitoneally
Description: Five minutes later both animals were anesthetized with 330 mg/kg of chloral hydrate injected intraperitoneally. Then a single EKG lead was attached to each rat for simultaneous recording of the paired rats' electrocardiograms. To produce arrhythmia, each rat was injected subcutaneously with isuprel […].
Beginning 30 minutes after isuprel introduction, the electrocardiograph recording paper speed was run (5 cm/sec) for 10 minutes to count the arrhythmic beats of both animals.

ischemic myocardium [7] = format: in vivo, dog; conditions: vs saline-treated animals, 5 and 60 minutes of ischemia
Description: Thirteen mongrel dogs were anesthetized with phenobarbital. […] C.V. Dis. 20; 55 (1977).

Compound: NC(=O)c1ncn([C@@H]2O[C@H](CO)[C@@H](O)[C@H]2O)c1N [1 (1-110), 5-amino-1-β-D-ribofuranosyl-imidazole-4-carboxamide]
- side effects ([1]; oral 5 mg/kg/day up to 2×10 mg/kg/day): No clinical or biochemical side effects were observed
- AICA riboside in plasma and CSF ([1]; oral, all dosages used): could not be detected
- autistic features after two months of continuous administration ([1]; younger patient, older patient without modification): clear-cut improvement
- inosine levels (ischemic myocardium [2]): more than twofold decrease
- clearance [3]: ~20 mL/min/kg
- Tissue Adenosine Levels (% Increase vs. Saline) (ischemic rat hearts): 30%
- SERUM GLUCOSE, MEAN BASELINE ([4]; 0.05 mg/kg/min (n = 41)): 108.5 ± 4.8 mg/dL
- SERUM URIC ACID, MEAN BASELINE ([4]; 0.05 mg/kg/min (n = 41)): 5.9 ± 0.2 mg/dL
- SERUM GLUCOSE-MEAN CHANGES FROM BASELINE ([4]; 0.05 mg/kg/min, 24 HR POST): 44.2 ± 7.4 mg/dL
- SERUM URIC ACID-MEAN CHANGES FROM BASELINE ([4]; 0.05 mg/kg/min, 24 HR POST): -0.5 ± 0.2 mg/dL
- SERUM GLUCOSE-MEAN CHANGES FROM BASELINE ([4]; 0.05 mg/kg/min, DISCHARGE): 18.7 ± 6.3 mg/dL
- SERUM URIC ACID-MEAN CHANGES FROM BASELINE ([4]; 0.05 mg/kg/min, DISCHARGE): 0.3 ± 0.2 mg/dL
- SERUM GLUCOSE-MEAN CHANGES FROM BASELINE ([4]; 0.05 mg/kg/min, ICU + 0): 65.6 + 7.6 mg/dl
- SERUM URIC ACID-MEAN CHANGES FROM BASELINE ([4]; 0.05 mg/kg/min, ICU + 0): -0.3 ± 0.1 mg/dL
- SERUM GLUCOSE-MEAN CHANGES FROM BASELINE ([4]; 0.05 mg/kg/min, ICU + 4 HR): 53.6 + 11.9 mg/dl
- SERUM URIC ACID-MEAN CHANGES FROM BASELINE ([4]; 0.05 mg/kg/min, ICU + 4 HR): -0.1 ± 0.1 mg/dL
- SERUM GLUCOSE-MEAN CHANGES FROM BASELINE ([4]; 0.05 mg/kg/min, ICU + 8 HR): 58.8 + 12.1 mg/dl
- SERUM URIC ACID-MEAN CHANGES FROM BASELINE ([4]; 0.05 mg/kg/min, ICU + 8 HR): -0.0 ± 0.1 mg/dL
- SERUM GLUCOSE-MEAN CHANGES FROM BASELINE ([4]; 0.05 mg/kg/min, POST CPB): 116.5 ± 10.7 mg/dL
- SERUM URIC ACID-MEAN CHANGES FROM BASELINE ([4]; 0.05 mg/kg/min, POST CPB): -0.6 ± 0.1 mg/dL
- SERUM GLUCOSE-MEAN CHANGES FROM BASELINE ([4]; 0.05 mg/kg/min, PRE CPB): 18.6 ± 7.0 mg/dL
- SERUM URIC ACID-MEAN CHANGES FROM BASELINE ([4]; 0.05 mg/kg/min, PRE CPB): -0.1 ± 0.1 mg/dL
- SERUM GLUCOSE, MEAN BASELINE ([4]; 0.10 mg/kg/min (n = 35)): 120.6 ± 7.3 mg/dL
- SERUM URIC ACID, MEAN BASELINE ([4]; 0.10 mg/kg/min (n = 35)): 5.7 ± 0.2 mg/dL
- SERUM URIC ACID-MEAN CHANGES FROM BASELINE ([4]; 0.10 mg/kg/min, 24 HR POST): 0.3 ± 0.3 mg/dL
- SERUM GLUCOSE-MEAN CHANGES FROM BASELINE ([4]; 0.10 mg/kg/min, DISCHARGE): 19.2 ± 7.0 mg/dL
- SERUM URIC ACID-MEAN CHANGES FROM BASELINE ([4]; 0.10 mg/kg/min, DISCHARGE): -0.1 ± 0.2 mg/dL
- SERUM GLUCOSE-MEAN CHANGES FROM BASELINE ([4]; 0.10 mg/kg/min, ICU + 0): 59.8 + 13.6 mg/dl
- SERUM URIC ACID-MEAN CHANGES FROM BASELINE ([4]; 0.10 mg/kg/min, ICU + 0): 1.5 ± 0.2 mg/dL
- SERUM GLUCOSE-MEAN CHANGES FROM BASELINE ([4]; 0.10 mg/kg/min, ICU + 4 HR): 55.5 + 9.6 mg/dl
- SERUM URIC ACID-MEAN CHANGES FROM BASELINE ([4]; 0.10 mg/kg/min, ICU + 4 HR): 1.6 ± 0.2 mg/dL
- SERUM GLUCOSE-MEAN CHANGES FROM BASELINE ([4]; 0.10 mg/kg/min, ICU + 8 HR): 44.4 + 7.5 mg/dl
- SERUM URIC ACID-MEAN CHANGES FROM BASELINE ([4]; 0.10 mg/kg/min, ICU + 8 HR): 1.4 ± 0.2 mg/dL
- SERUM GLUCOSE-MEAN CHANGES FROM BASELINE ([4]; 0.10 mg/kg/min, POST CPB): 120.6 ± 15.9 mg/dL
- SERUM URIC ACID-MEAN CHANGES FROM BASELINE ([4]; 0.10 mg/kg/min, POST CPB): 0.4 ± 0.1 mg/dL
- SERUM GLUCOSE-MEAN CHANGES FROM BASELINE ([4]; 0.10 mg/kg/min, PRE CPB): 4.8 ± 3.4 mg/dL
- SERUM URIC ACID-MEAN CHANGES FROM BASELINE ([4]; 0.10 mg/kg/min, PRE CPB): 0.4 ± 0.1 mg/dL
- uric acid effects in the initial high dose patients ([4]; 0.19 or 0.38 mg/kg/min, five drug-treated patients): significant hyperuricemia and elevated urinary uric acid levels with crystalluria
- drug-treated patients with adverse events ([4]; low dose group (0.05 mg/kg/min)): 28/41
- adenosine secreted vs control cells [5]: at least twofold more adenosine than control cells
- reduction of infarct size (myocardial infarct): 33%
- ventricular fibrillation [6]: complete suppression
- regional myocardial blood flow to the ischemic myocardium (ischemic myocardium [7]): significantly greater

From patent US8993527B2, “Methods, compositions, and formulations for preventing or reducing adverse effects in a patient” (Pericor Therapeutics, Inc., priority 2005, dated 2015)
